Measurements: paper PMC8968852, “A New Spectral Shift-Based Method to Characterize Molecular Interactions” (Assay and Drug Development Technologies, 2022)
Like-named read-outs stand apart in the source and are kept apart here.

Key:
bCA-II [1] = settings: literature ITC; cited from earlier work
[2] = target: T1, Carbonic Anhydrase II from bovine erythrocytes (bCA-II) (Bos taurus, UniProt P00921); assay: biochemical; format: binding
T1 construct: Carbonic Anhydrase II from bovine erythrocytes; purchased Sigma Aldrich C2522; host or cells: bovine erythrocytes
T1 sequence (P00921 whole entry): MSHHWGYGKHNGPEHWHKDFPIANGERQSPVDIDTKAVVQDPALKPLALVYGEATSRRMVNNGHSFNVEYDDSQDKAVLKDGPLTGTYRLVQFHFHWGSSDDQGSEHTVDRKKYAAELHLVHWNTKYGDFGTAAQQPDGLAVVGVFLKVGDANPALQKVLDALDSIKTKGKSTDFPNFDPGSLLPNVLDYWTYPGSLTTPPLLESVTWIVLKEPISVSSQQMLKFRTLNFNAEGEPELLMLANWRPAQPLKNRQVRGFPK
Description: NanoTemper Technologies GmbH) using the Monolith X instrument equipped with dual-emission detection optics (NanoTemper Technologies GmbH). The required volume per data point was 10 μL. Environment-sensitive near-infrared dyes with an emission maximum at around 660 nm (e.g., RED 2nd Generation dyes, NanoTemper Technologies GmbH, or Cy5) were used as fluorescent reporters. […] NanoTemper Technologies GmbH). […] A threefold molar excess of dye was added to the protein, followed by incubation for 30 min at room temperature in the dark. Unreacted dye was removed using the B-Column of the labeling kit. […] Any further dilution steps were carried out in assay buffer supplemented with 4% DMSO. […] After 5 min of incubation, samples were loaded into capillaries and placed into the device. Spectral shift measurements were performed at 25°C. […] In this model, the fraction bound f(cligand) at a given ligand concentration cligand in equilibrium is given as (1)

bCA-II [3] = settings: literature SPR; cited from earlier work
[4] = system: Cy5-labeled 13-mer (5′ Cy5 TTT GGA CTT CAG G 3′); assay: Spectral shift DNA hybridization and van't Hoff analysis; format: binding
Description: Chemically synthesized DNA oligonucleotides were obtained from Metabion GmbH (Planegg, Germany). A Cy5-labeled 13-mer including a short poly-T spacer in front of a 10 base-long recognition sequence (sequence 5′ Cy5 TTT GGA CTT CAG G 3′) was designed as target and a complementary 10-mer (sequence 3′ CCT GAA GTC C 5′) as ligand. All other chemicals and reagents used in this study were of the highest available analytic grade.
All dual-emission spectral shift measurements in this work were performed in coated capillaries (cat# MO-K025; NanoTemper Technologies GmbH) using the Monolith X instrument equipped with dual-emission detection optics (NanoTemper Technologies GmbH). The required volume per data point was 10 μL. Environment-sensitive near-infrared dyes with an emission maximum at around 660 nm (e.g., RED 2nd Generation dyes, NanoTemper Technologies GmbH, or Cy5) were used as fluorescent reporters. For each ratiometric reading, the fluorescence was recorded simultaneously at 650 and 670 nm for 5 s (Table 1).
Lyophilized DNA oligonucleotides were resuspended in ddH2O to a concentration of 100 μM. Assay buffer (20 mM sodium phosphate buffer, pH 7.2, 100 mM NaCl, 0.05% TWEEN® 20) was prepared as twofold stock. Cy5-labeled 13-mer was further diluted in twofold assay buffer. Serial dilution of 10-mer was performed in ddH2O. The highest final concentration of 10-mer in the 16-point dilution series was 2 μM and the final concentration of Cy5-labeled 13-mer was 2.5 nM with 20 μL in each sample. For ratiometric fluorescence analysis, the device was adjusted to the desired temperature and samples were incubated for 5 min before starting the measurement. Measurements were performed at 23°C to 37°C in 2°C increments and then repeated in reverse order. Capillaries were sealed with Capillary Sealing Paste (cat# PR-P001; NanoTemper Technologies GmbH) to prevent evaporation.
Ratios of the fluorescence intensities at 670 and 650 nm were calculated automatically within the MO.Control software (NanoTemper Technologies GmbH). For Kd determination, dose–response curves were fitted with a binding model that describes a molecular interaction with a 1:1 stoichiometry according to the law of mass action. In this model, the fraction bound f(cligand) at a given ligand concentration cligand in equilibrium is given as (1) fcligand=cligand+ctarget+Kd−cligand+ctarget+Kd^2−4⋅cligand⋅ctarget/2ctarget
Van't Hoff plots were prepared by plotting the logarithm of the dissociation constant, ln Kd, over the inverse temperature, 1/T. A linear regression was then used to calculate thermodynamic parameters according to (5) ΔH=R⋅slope

GLUT1 = settings: reported IC50 from cellular assays; cited from earlier work
[5] = van't Hoff analysis, 23°C to 37°C

Molecule: NS(=O)(=O)c1ccccc1 [Benzenesulfonamide, benzenesulfonamide]
- Kd (bCA-II [1]): 839 nM
- Kd [2]: 502 ± 67 nM
- 670 nm/650 nm ratio of labeled bCA-II upon inhibitor binding ([2]; final value, without bound inhibitor 0.884): 0.890
- Kd (bCA-II [3]): 848 nM

Molecule: 3′ CCT GAA GTC C 5′ (DNA CCTGAAGTCC; chemistry not fully specified; listed 3' to 5') [10-mer, chemically synthesized DNA 10-mer complementary to the Cy5-labeled 13-mer target]
- Kd ([4]; 23 °C): 1.77 ± 0.06 nM
- Kd ([4]; 25 °C): 3.35 ± 0.11 nM
- Kd ([4]; 27 °C): 6.52 ± 0.17 nM
- Kd ([4]; 29 °C): 12.8 ± 0.3 nM
- Kd ([4]; 31 °C): 25.4 ± 0.4 nM
- Kd ([4]; 33 °C): 50.4 ± 0.7 nM
- Kd ([4]; 35 °C): 102 ± 2 nM
- Kd ([4]; 37 °C): 198 ± 4 nM
- entropy ΔS [4, 5]: −168.5 cal/mol/K
- van't Hoff enthalpy ΔH [4, 5]: -61.8 kcal/mol
